# Measured values taken from US12440471B2, “Compositions and methods for the treatment of bronchopulmonary dysplasia (BPD) and BPD-associated pulmonary hypertension” (AyuVis Research, Inc., priority 2021, dated 2025).
# What was measured:
# [1] = PK study in mouse pups by IP and IN routes (plasma, lung tissue); format: in vivo
# Excerpt: Pharmacokinetic (PK) Profile of AVR-48 (compound 8). The PK studies of AVR-48 were developed and designed in-house, by high performance liquid chromatography (HPLC), in both mouse and rat pups by IV, IP and IN dosing, to check the bioavailability of the drug formulated as solution, suspension or nanoparticle encapsulation in plasma, broncho-alveolar lavage fluid (BALF) and lung tissues.
# The first study was done in the plasma of mouse pups by IP and IN routes to determine the dose range for efficacy. […] For IN dosing, a Tmax of 1 h was found even with a dose of 0.22 mg/kg and rapid clearance was observed by 2 h.
# TLR4 = biological target: T1, TLR4 (Homo sapiens, UniProt O00206); experiment: TLR4 level in THP-1 human monocytic cells by ELISA; format: cell-based
# T1 construct: Cell lysates were prepared, total protein was quantified and treated with different concentrations; host or cells: THP-1 cells stimulated with PMA for 48 h, then lysed
# [2] = tested on: hyperoxia-exposed BPD mouse model; experiment: BPD mouse model: flow cytometry of lung immune cell populations; format: in vivo
# Protocol: AVR-48 normalizes two important innate immune cell populations in animals with BPD. Based on the affinity of AVR-48 for TLR4 and the increased TLR4 expression in AVR-48 treated BPD animals, the inventors determined if there would be an impact on immune cell recruitment to the lung interstitium. Flow cytometry was performed to determine absolute numbers of key immune cell populations in the lung of neonatal mice pups from AVIS-48-treated and untreated animals in the RA and BPD groups. […] All other cell populations were similar (FIG. 11).
# [3] = tested on: hyperoxia-exposed BPD mouse model; experiment: BPD mouse model: BPD-PH, RV hypertrophy ratios; format: in vivo
# Excerpt: AVR-48 protects the lungs from progressing towards BPD-PH. BPD-PH is characterized by abnormal vascular remodeling and rarefication of the pulmonary vasculature leading to vascular growth arrest which eventually leads to increased pulmonary vascular resistance and right heart failure (Hansmann, Sallmon et al. 2021). A similar effect is also seen in mouse models of experimental BPD, as reported by the present inventors, previously (Sun, Choo-Wing et al. 2013, Sureshbabu, Syed et al. 2016, Syed, Das et al. 2017, Leary, Das et al. 2019). There is hypertrophy of the right ventricle (RV) with an increase in the thickness of interventricular septum (IVS). […] There was no change in the ratio in the RA group treated with the drug, which was similar to RA control group (FIG. 8A).
# Morphometry and quantification. To study chord length, septal thickness and radial alveolar count in the lungs, RV, LV and IVS thickness, 5 μm-thick left-lobe lung and heart paraffin-embedded sections were stained with H&E. Multiple randomly chosen areas (at least 10 areas) from each section were photographed using 100× total magnification. Sections with large airways or blood vessels from the lung were excluded for lung morphometry while quantitative measurements of PH-induced RV hypertrophy ratios (RV/LV and RV/LV+IVS) were done using the methodology described previously (Sun, Choo-Wing et al. 2013). The lung morphometry parameters were measured as described (Bhandari, Choo-Wing et al. 2008, Leary, Das et al. 2019, Das, Acharya et al. 2020, Das, Curstedt et al. 2020) either using ImageJ (a free software of NIH) or CellSens software (version 7, Olympus).
# [4] = tested on: hyperoxia-exposed BPD mouse model; experiment: BPD mouse model: immunofluorescence (Ki67, PCNA, vWF) and TUNEL staining of lung; format: in vivo
# Excerpt: AVR-48 restored lung morphology and improved alveolar cellular physiology. After assessment of the safety profile of the AVR-48, and confirmation of the ideal dose to be used, the inventors then performed studies to evaluate the therapeutic effect on the lung in the experimental BPD mouse model, as previously described (Bhandari, Choo-Wing et al. 2008, Leary, Das et al. 2019, Das, Acharya et al 2020, Das, Curstedt et al 2020). BPD is characterized by enlarged simplified alveoli with large air sacs, thickened septum, and thin alveolar epithelium (FIG. 2A) accompanied by overall decrease in alveolar cell proliferation, decreased/dysregulated angiogenesis and increased cell death. All these features were restored after injection of 2 doses of AVR-48, IP (10 mg/kg) on days P2 and P4. […] The total inflammatory cells present in the BALF (FIG. 3A) and the total protein content (FIG. 3B)—both increase in BPD, was decreased after treatment with AVR-48. […] To assess cell specificity, the inventors focused on Type I and Type II alveolar epithelial cells (AECs), as they are most relevant to the process of alveolarization, as described in the manuscript. The inventors utilized the receptor for advanced glycation end-products (RAGE) as the preferred marker for Type I AECs and surfactant protein (SP)-C for the Type II AECs. Due to Ki67 and SP-C being raised in the same species, we used proliferating cell nuclear antigen (PCNA) expression—a well-established marker of cell proliferation because cells remain a longer time in the G1/S phase when proliferating—as a preferred marker for proliferating cells. […] There were few cells which were double positive for PCNA as well as RAGE in the RA and RA+AVR-48 groups (FIG. 4C).
# Histology, immunohistochemistry and immunofluorescence. Both the RA control and BPD mice were anesthetized (using an overdose of a cocktail of xylazine-ketamine) and lung and heart tissues were harvested after perfusion and fixed overnight in 4% paraformaldehyde. Fixed tissues were then washed in fresh PBS, dehydrated using 70% ethanol, cleared, and embedded in paraffin to be sectioned and stained with hematoxylin and eosin (H&E) for lung morphometry or immunohistochemistry/immunofluorescence as previously described (Leary, Das et al. 2019, Das, Achaiya et al. 2020, Das, Curstedt et al. 2020). Immunofluorescence staining was done for Ki67 (Abcam, 1:10) and Von Wilebrand Factor (vWF-DAKO, 1:100) on lung paraffin sections following the protocol as described earlier (Leary, Das et al. 2019) while TUNEL staining was done following the manufacturer's instructions (Roche).
# For quantification of cell proliferation and cell death, the entire lung section was divided into 3 areas, and the total number of Ki67+ve and TUNEL+ve cells nuclei were counted manually which was normalized with the total number of nuclei to give a percentage of positive cells. For vWF quantification, total number of closed vessels were counted per high power field area in one lung section. A minimum of 3 areas were chosen, and 3-7 animals were used for staining and counting.
# [5] = C57BL/6J, mouse, plasma, 10 mg/kg IP
# [6] = AVR-48-treated RA animals vs RA animals
# [7] = treated vs untreated BPD animals, similar to RA control
# T1 sequence (O00206 24-839): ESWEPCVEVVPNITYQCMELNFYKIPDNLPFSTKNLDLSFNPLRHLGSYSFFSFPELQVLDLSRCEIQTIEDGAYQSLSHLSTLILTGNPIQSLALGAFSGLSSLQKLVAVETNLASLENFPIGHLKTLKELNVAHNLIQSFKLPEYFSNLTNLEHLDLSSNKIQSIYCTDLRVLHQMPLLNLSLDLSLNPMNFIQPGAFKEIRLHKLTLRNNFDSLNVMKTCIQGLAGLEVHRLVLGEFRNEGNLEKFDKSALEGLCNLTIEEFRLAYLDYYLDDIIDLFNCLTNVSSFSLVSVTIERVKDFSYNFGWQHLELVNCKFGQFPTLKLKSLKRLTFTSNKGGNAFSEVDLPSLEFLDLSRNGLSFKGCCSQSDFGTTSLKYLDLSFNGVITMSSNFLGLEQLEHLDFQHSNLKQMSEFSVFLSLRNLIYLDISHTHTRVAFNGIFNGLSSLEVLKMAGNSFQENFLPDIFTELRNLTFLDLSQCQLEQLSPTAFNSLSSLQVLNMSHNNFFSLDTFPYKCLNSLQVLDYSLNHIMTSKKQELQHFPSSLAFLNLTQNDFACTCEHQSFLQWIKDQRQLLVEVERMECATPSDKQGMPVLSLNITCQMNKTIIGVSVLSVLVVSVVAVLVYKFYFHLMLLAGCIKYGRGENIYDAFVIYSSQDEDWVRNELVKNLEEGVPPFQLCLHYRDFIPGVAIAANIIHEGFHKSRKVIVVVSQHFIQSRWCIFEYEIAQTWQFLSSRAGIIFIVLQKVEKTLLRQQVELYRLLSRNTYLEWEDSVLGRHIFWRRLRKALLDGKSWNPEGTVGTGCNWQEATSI
smiles,measurement,setting,value
CC(=O)N[C@@H]1C(Oc2ccc([N+](=O)[O-])cc2)OC(CO)C(O)C1O (stereo partly drawn) [AVR-48],Tmax,"[1]; C57BL/6J, mouse, intraperitoneal, lung tissue, 10 mg/kg",5 min
same,Cmax,"[1]; C57BL/6J, mouse, intraperitoneal, plasma, single IV or IP injection of 10 mg/kg",5.78 ± 0.91 µM
same,Tmax,"[1]; C57BL/6J, mouse, plasma, other: intranasal (IN), IN dosing, 0.22 mg/kg",60 min
same,Tmax,"[1]; C57BL/6J, mouse, plasma, 0.22 mg/kg IP",5 min
same,Tmax,[1]; [5],5 min
same,half-life,[1]; [5],21.6 min
same,time by which rapid clearance was observed,"[1]; IN dosing, 0.22 mg/kg",≤ 2 h
same,clearance from circulation,[1]; following IP injection,cleared from circulation rapidly
same,"bioavailability in plasma and lungs, IN vs IP",[1]; solution formulation,similar
same,"EC50, binding to monocytes/macrophages possibly via surface receptor TLR4",TLR4,sub nanomolar
same,DC50,"TLR4; THP-1 cells, after 48 h of treatment, ELISA, read-out: EC50, decrease of TLR4 level",76 nM
same,all other immune cell populations in the lung,[2]; [6],similar
same,dendritic cells in the lung,[2]; [6],increase
same,macrophages in the lung,[2]; [6],"slight, but statistically significant, decrease"
same,macrophages in the lung,[2]; [7],increased
same,neutrophils in the lung,[2]; [7],decreased
same,Fulton's Index (RV/LV+IVS),[3]; BPD group after treatment,decreased significantly
same,RV/left ventricle (LV) ratio,[3]; BPD group after treatment,decreased significantly
same,RV/LV ratio and Fulton's Index in room air animals,[3]; RA group treated with the drug vs RA control,no change
same,cell proliferation (Ki67 immunostaining),"[4]; 10 mg/kg IP P2 and P4, vs BPD",revival in cell proliferation
same,RAGE+ve cells co-localization with PCNA (Type I AECs),[4]; BPD or BPD+AVR-48 groups,did not co-localize with PCNA
same,cells co-localizing SP-C and PCNA (proliferating Type II AECs),"[4]; BPD vs RA, RA+AVR-48, BPD+AVR-48","less in the BPD group as compared to RA, RA+AVR-48 and BPD+AVR-48 groups"
same,blood vessels (vWF immunostaining),[4]; vs BPD group,showed improvement
same,"cell death (TUNEL staining, cleaved caspase 3 immunoblotting)",[4]; vs BPD group,decrease in cell death
